The results in this text go back to patent US5451600A, “Substituted tetrahydrobenzopyrrolylfuranoic acid derivatives as phospholipase A2 inhibitors” (Hoffmann-La Roche Inc., priority 1994, dated 1995).

pIC50: −log10 of the molar value. Like-named read-outs stand apart in the source and are kept apart here.

Test [1] relates to carrageenan-induced paw edema in rats. Nature of the test: Carrageenan-induced paw edema model of inflammation. Type of test: in vivo. Conditions: 2 hr, rat, read-out: Carrageenan ind. paw edema % Inhib. 2 hr; for inhibition in vivo at 100 mg/kg: 100 mg/Kg po; for inhibition in vivo at 3 mg/kg: 3 mg/Kg ip. For orientation: The carrageenan paw model is a standard test of acute inflammation.

Another test relates to cellular PLA2. Kind of test: Inhibition of Cellular Phospholipase A2 (A23187-stimulated macrophages). Type of test: cell-based. Conditions: rat peritoneal macrophages, A-23187 stimulated. As to the method: II. Inhibition of Cellular Phospholipase A2. - % Inhibition of Cellular PLA2
Resident macrophages were obtained from rats by peritoneal lavage with phosphate buffered saline minus Ca2^++ and Mg2^++ (PBS). Cells were washed 3 times with PBS and resuspended in Dulbecco's Modified Eagle's Medium (GiBco) containing L-glutamine low D-glucose (1000 mg/L), and sodium pyruvate (110 mg/L), supplemented with 10% fetal calf serum. Cells were counted on a Coulter ZBI cell counter and then resuspended to a concentration of 6×10^6 cells/1.5 ml. The cell suspension (1.5 ml culture dishes (35 mm) and the cells were allowed to adhere to the dishes for 90 minutes at 37° C. Dishes were washed 3 times with PBS to remove non-adherent cells. [^14 C]arachidonic acid ([^14 C]-AA, approximately […], were added to the cells (1 uCi/dish) and allowed to incorporate for 120 minutes. Medium containing unincorporated [^14 C]-AA was removed and the cell layer was again washed 3 times with PBS. Inhibitors were dissolved in dimethylsulfoxide (DMSO) and added directly to the macrophages in Hank's Balanced Salt Solution (GiBco) phosphate-buffered, pH 7.4) to obtain the desired final concentration. Cells were incubated with drug or DMSO for 30 minutes at 37° C. and were then stimulated with calcium-ionophore A-23187 (0.75 uM) for 20 minutes. The extracellular medium was removed and the [^14 C] radioactivity released into this medium from AA metabolism was measured by liquid scintillation spectroscopy. The amounts of LTB4 and PGE2 were measured in the extracellular medium by radio immunoassay with specific antisera. The effects of inhibitor were measured as percent inhibition of A23187- stimulated AA metabolite release (^14 C release, PGE2 and LTB4 production) (control) which were calculated from the formula: [formula] IC50 's were calculated as described in the HSF-PLA2 assay.

Test [2] has as its target T1, PLA2 activity in human synovial fluid (HSF) (Homo sapiens, UniProt P14555).
T1 construct: Synovial fluid was obtained from patients with rheumatoid arthritis; from tissue; host or cells: cell-depleted synovial fluid of patients with rheumatoid arthritis
T1 sequence (P14555 21-144): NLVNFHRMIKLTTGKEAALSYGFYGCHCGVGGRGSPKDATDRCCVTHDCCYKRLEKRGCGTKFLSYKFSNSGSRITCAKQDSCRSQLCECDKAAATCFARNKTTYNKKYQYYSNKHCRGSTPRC
Kind of test: Phospholipase A2 (PLA2) enzymatic assay - % Inhibition of HSF-PLA2. It is filed as biochemical. To be noted: for inhibition at 5 µM: read-out: % Inhib. of HSF-PLA2 at 5 μM; for pIC50: human synovial fluid PLA2, 30 min at 37° C., pH 7.3. The source says: 1, Phospholipase A2 (PLA2) enzymatic assay - % Inhibition of HSF-PLA2
PLA2 assay procedure described by Hope et al., Inflammation 14:543-559 (1.990) was utilized to measure the inhibitory activity of the invention (inhibitor) against PLA2 activity in human synovial fluid (HSF). Synovial fluid was obtained from patients with rheumatoid arthritis. The assay procedure measured the release of [1-^14 C]oleic acid from the sn-2 position of phospholipids in autoclaved Escherichia coli previously grown in media containing [1-^14 C]oleic acid. The standard assay reaction conditions included 1×10^9 Escherichia coil (10,000 dpm ^14 C), 0.15% (v/v) cell-depleted HSF, (which was equivalent to 66 μg protein/mL) 2 mM CaCl2, 150 mM NaCl, 50 mM sodium (N-[2-hydroxyethyl] piperazine-N'-[2-ethanesulfonate]) (HEPES) buffer (pH 7.3), 1% dimethyl sulfoxide (DMSO) and various concentrations of inhibitor in a total volume of 0.5 ml. Inhibitors were dissolved in DMSO and added. The reaction was initiated by addition of HSF, incubated for 30 min at 37° C. and then stopped by addition of 2.5 ml of chloroform/methanol (1:1.5, v/v). The total lipids were extracted by the method of Bligh, E. G., and Dyer, W. J, Can. J. Biochem. Physiol. 37:911-917 (1959) by the further addition of 0.5 mL of chloroform and 1 mL of water with mixing. The lipid extract was redissolved in chloroform/methanol (9:1, v/v) containing 10 ug of carrier oleic acid. The oleic acid was separated from phospholipids by thin layer chromatography using gel-impregnated glass fiber sheets (ITLC type SG sheets). The sheets were preactivated by heating at 110° C. for 30 min. The lipid extract was applied to the sheets and chromatographed for 6 minutes, using hexane/acetic acid (100:1, v/v). The positions on the sheet containing oleic acid and phospholipids were visualized by exposure to iodine vapor and located by comparison to standards. The oleic acid and phospholipid zones were cut from the sheets, shaken individually with 2 ml of ethanol/water (80:20, v/v) and 15 ml of Aquasol, then counted for [^14 C] radioactivity (dpm). PLA2 activity, expressed as percent hydrolysis, was calculated from the formula: [formula] and was corrected for nonenzymatic hydrolysis of the substrate. Percent inhibition due to the presence of drug was calculated from the formula: [formula]
When various concentrations of a Compound of Formula I were tested, the percent inhibition at each concentration was plotted as log concentration (abscissa) versus percent inhibition (ordinate) and the IC50 was determined from this plot.

Test [3] deals with adjuvant-induced arthritis in male Lewis rats. Nature of the test: Established adjuvant-induced arthritis test. Type of test: in vivo, rat. Conditions: day 28 minus day 21, vehicle value in parentheses. As to the method: IV. Adjuvant-induced Arthritis
Male Lewis rats (120-140 g) received 0.1 mg myeobacterium brityricum (0.5% ow/v) heavy mineral oil containing 0.2% digitonin administered in the base of the tail and the resulting arthritis was allowed to develop for 21 days (Coffey and Salvador, 1981). The combinded volumes of both hind paws were measured using a water plethysmograph by immersion of the paws to the level of the lateral malleolus. The animals were divided into drug-treatedand vehicle (control) groups (six rats per group) with approximately equal volumes of both hind paws. On day 21, body weights were recorded and the i.p. or p.o. vehicle and drug were then administered daily for seven days. On day 28, the final day of the experiment, heparinized (0.2 units/100 μl) blood was also collected for measurement of plasma fibrinogen concentrations (Goodwin, 1961). The changes in paw volume and body weight were calculated as paw volume or body weight at day 28 minus paw volume or body weight at day 21. Values are reported as means ± S.E. for n=6. Plasma fibrinogen concentration was quantitated according to Goodwin et al. (1961) and is expressed in mg/dl. Statistical differences between measurement parameters of the drug-treated and control groups were determined using Students's t-test.

The subject of test [4] is PLA2-induced rat paw edema (PLA2 purified from Naja naja snake venom). Nature of the test: PLA2-induced rat paw edema model of inflammation. Type of test: in vivo.

For `CCCCCCCCC1CCCc2c1n(CCCCCCCC)c1ccc(Oc3ccc(C(=O)O)o3)cc21` (racemic) [Example 154, rac-5-[(1,2,3,4-tetrahydro-1,9-dioctyl-9H-dibenzo[b,d]pyrrol-6-yl)oxy]-2-furancarboxylic acid], in test [1] (30 mg/Kg ip), the inhibition in vivo at 30 mg/kg was determined as 45%. Further, the inhibition in vivo at 100 mg/kg in test [1] came to 49%. For the same molecule, the “% Inhib. of cellular PLA2 at 5 μM” value in the test on cellular PLA2 worked out at 78%. Besides, in test [2], the inhibition at 5 µM worked out at 81%. For the same molecule, the “Change of body wt. (vehicle)” value in test [3] (30 mg/Kg po daily seven days) is listed as 10 g.
Take `CCCCCCCCn1c2c(c3cc(/C=C/c4ccc(C(=O)O)o4)ccc31)CCCC2` [Example 43, (E)-5-[2-(1,2,3,4-tetrahydro-9-octyl-9H-dibenzo[b,d]pyrrol-6-yl)ethenyl]-2-furancarboxylic acid]: the “PLA2-ind. paw edema % Inhib 2 hr” value in test [4] (50 mg/Kg ip) turned out to be 60%. Besides, the inhibition in vivo at 50 mg/kg in test [1] (50 mg/Kg ip) is 40%. Besides, the inhibition in vivo at 100 mg/kg in test [1] came out at 29%. The pIC50 in the test on cellular PLA2 was 6.30; in test [2], 5.22. In addition, the inhibition at 10 µM in test [2] (10 μM (footnote a), read-out: % Inhib. of HSF-PLA2 (a: % Inhibition at 10 μM)) turned out to be 90%. Also, the “Change of body wt. (vehicle)” value in test [3] (10 mg/Kg ip daily seven days) and in test [3] (100 mg/Kg po daily seven days) was 12 g throughout. Further, the “Change of paw volume (vehicle)” value in test [3] (10 mg/Kg ip daily seven days) was -0.18 mL; in test [3] (100 mg/Kg po daily seven days) it was -0.29 mL.
As to `CCCCCCCCn1c2c(c3cc(/C=C/c4ccc(C(=O)O)o4)ccc31)CCCC2(C)C` [Example 44, (E)-5-[2-(1,2,3,4-tetrahydro-1,1-dimethyl-9-octyl-9H-dibenzo[b,d]pyrrol-6-yl)ethenyl]-2-furancarboxylic acid], in test [4] (30 mg/Kg ip), the “PLA2-ind. paw edema % Inhib 2 hr” value is 71%. Besides, the “PLA2-ind. paw edema % Inhib 2 hr” value in test [4] (100 mg/Kg po) came to 27%. For the same molecule, the inhibition in vivo at 10 mg/kg in test [1] (10 mg/Kg ip) is 57%. In test [1], the inhibition in vivo at 100 mg/kg was found to be 36%. In addition, in the test on cellular PLA2, the “% Inhib. of cellular PLA2 at 5 μM” value was 62% and the pIC50 was 5.40. In test [2], the pIC50 is 5.60 and the inhibition at 5 µM is 71%. Moreover, in test [3] (30 mg/Kg po daily seven days), the “Change of body wt. (vehicle)” value is 5 g and the “Change of paw volume (vehicle)” value stood at 0.68 mL.
Regarding `CCCCCCCCn1c2c(c3cc(/C=C\c4ccc(C(=O)O)o4)ccc31)CCCC2` [Example 51, (Z)-5-[2-(1,2,3,4-tetrahydro-9-octyl-9H-dibenzo[b,d]pyrrol-6-yl)ethenyl]-2-furancarboxylic acid], in test [1] (1 mg/Kg ip), the inhibition in vivo at 1 mg/kg was 70%. Besides, the inhibition in vivo at 100 mg/kg in test [1] came out at 72%. Besides, in the test with cellular PLA2, the “% Inhib. of cellular PLA2 at 5 μM” value amounted to 85% and the pIC50 is 5.70. In addition, in test [2], the negative-log IC50 (pIC50) is 5.40 and the inhibition at 5 µM came to 67%. Also, in test [3] (10 mg/Kg po daily seven days), the “Change of body wt. (vehicle)” value stood at 6 g and the “Change of paw volume (vehicle)” value is listed as 0.71 mL.
As to `CCCCCCCCn1c2c(c3cc(/C=C\c4ccc(C(=O)O)o4)ccc31)CCCC2(C)C` [Example 52, (Z)-5-[2-(1,2,3,4-tetrahydro-1,1-dimethyl-9-octyl-9H-dibenzo[b,d]-pyrrol-6-yl)ethenyl]-2-furancarboxylic acid], the inhibition in vivo at 10 mg/kg in test [1] (10 mg/Kg ip) came to 50%. Besides, the “% Inhib. of cellular PLA2 at 5 μM” value in the test with cellular PLA2 amounted to 66%. Besides, in test [2], the inhibition at 5 µM is 73%. In addition, in test [3] (30 mg/Kg po daily seven days), the “Change of body wt. (vehicle)” value came out at 13 g and the “Change of paw volume (vehicle)” value was 0.66 mL.
In the case of `CCCCCCCCn1c2c(c3cc(Oc4ccc(C(=O)O)o4)ccc31)CCCC2` [Example 132, 5-[(1,2,3,4-tetrahydro-9-octyl-9H-dibenzo[b,d]pyrrol-6-yl)oxy]-2-furancarboxylic acid], the “PLA2-ind. paw edema % Inhib 2 hr” value in test [4] (100 mg/Kg po) is listed as 34%. For the same molecule, in test [1], the inhibition in vivo at 3 mg/kg was 45% and the inhibition in vivo at 100 mg/kg amounted to 65%. Also, in the test on cellular PLA2, the “% Inhib. of cellular PLA2 at 5 μM” value is 97% and the pIC50 is 6.00. For the same molecule, in test [2], the pIC50 is 5.40 and the inhibition at 5 µM was found to be 79%. For the same molecule, in test [3] (10 mg/Kg po daily seven days), the “Change of body wt. (vehicle)” value came to 13 g and the “Change of paw volume (vehicle)” value is recorded as 0.48 mL.
For `CCCCCCCCn1c2c(c3cc(Cc4ccc(C(=O)O)o4)ccc31)CCCC2` [Example 160, 5-[(1,2,3,4-tetrahydro-9-octyl-9H-dibenzo[b,d]pyrrol-6-yl)methyl]-2-furancarboxylic acid], the “PLA2-ind. paw edema % Inhib 2 hr” value in test [4] (30 mg/Kg ip) stood at 49%. Moreover, the inhibition in vivo at 3 mg/kg in test [1] stood at 46%. Besides, in test [1] (10 mg/Kg po), the inhibition in vivo at 10 mg/kg amounted to 50%. Also, the “% Inhib. of cellular PLA2 at 5 μM” value with cellular PLA2 came to 94%. Moreover, the inhibition at 5 µM in test [2] was 49%. In addition, in test [3] (30 mg/Kg po daily seven days), the “Change of body wt. (vehicle)” value turned out to be 4 g and the “Change of paw volume (vehicle)” value was 0.47 mL.

The pIC50 is −log10 of the IC50, conventionally taken in molar units.
